Entries after “also recorded” stand apart in the source; their conditions may differ.
What was measured:
Type in all cases: cell-based
[1] = test system: ARE activity in CWR22v1 cells (ARwt and ARv7); experiment: ARE-luciferase reporter in CWR22v1 cells
Protocol: FIG. 4. Effect of T6 on basal level of ARE expression in CWR22v1 cells. CWR22v1 cells were transiently transfected with ARE-luciferase. Cells were maintained for 48 h without (EtOH) and in the presence of 100 nM of peptidomimetic or volume equivalent of vehicle (DMSO) control or 10 μM of casodex or MDV3100.

ARv7 = target: T1, ARv7 (Homo sapiens, UniProt P10275); experiment: Rat probasin-luciferase reporter in M12 cells with ARv7; design: expressed in transfected cells; host or cells: M12 cells (A9); conditions: 100 nM peptidomimetic, 48 h
T1 sequence (P10275 1-644 isoform P10275-3): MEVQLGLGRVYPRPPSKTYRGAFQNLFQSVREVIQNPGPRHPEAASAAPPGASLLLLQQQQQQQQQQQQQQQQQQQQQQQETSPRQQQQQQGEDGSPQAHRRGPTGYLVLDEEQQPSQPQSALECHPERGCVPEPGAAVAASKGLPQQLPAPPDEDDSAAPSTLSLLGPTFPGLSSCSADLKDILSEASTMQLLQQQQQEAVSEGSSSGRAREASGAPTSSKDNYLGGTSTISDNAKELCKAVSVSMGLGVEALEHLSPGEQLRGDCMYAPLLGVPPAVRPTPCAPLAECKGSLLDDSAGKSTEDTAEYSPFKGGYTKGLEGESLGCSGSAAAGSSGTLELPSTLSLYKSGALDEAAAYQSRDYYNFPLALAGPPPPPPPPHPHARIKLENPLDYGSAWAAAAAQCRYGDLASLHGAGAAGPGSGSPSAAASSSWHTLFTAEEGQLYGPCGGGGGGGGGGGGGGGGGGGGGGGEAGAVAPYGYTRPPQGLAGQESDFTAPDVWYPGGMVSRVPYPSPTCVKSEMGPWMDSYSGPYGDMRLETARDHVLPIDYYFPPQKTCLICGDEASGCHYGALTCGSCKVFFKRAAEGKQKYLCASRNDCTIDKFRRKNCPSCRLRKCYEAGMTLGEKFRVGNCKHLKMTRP
Protocol: (§1) FIG. 5. Effect of T6 on basal level of ARE expression in M12 cells. M12 cells were transiently transfected with the rat probasin-luciferase reporter and either ARwt or ARv7. Cells were maintained for 48 h without (EtOH) and in the presence of 100 nM of peptidomimetic or volume equivalent of vehicle (DMSO) control or 10 μM of MDV3100. Luciferase assay results are shown.

WxxLF motif on AR = experiment: Gal4-3WxxLF and AR-Gal4 (hARGAL4/PSAenhGAL4-luc) luciferase reporter assays; conditions: 100 nM peptidomimetic, 48 h, absence of androgens
Protocol: FIGS. 1A-D. Oligobenzamide control of C4-2 cell proliferation. (FIG. 1A) Chemical structure of T6. (FIG. 1B) C4-2 cells were transiently transfected with Gal4-3WxxLF promoter or (FIG. 1C) with synthetic hARGAL4 and the PSAenhGAL4-luc reporter. Cells were maintained for 48 h in the absence of androgens and with either 100 nM of peptidomimetic or volume equivalent of vehicle (DMSO) control and luciferase activity measured. (FIG. 1D) Peptidomimetics knocked down ligand independent proliferation in C4-2 cells
Ligand independent activation involves the WxxLF motif, whose tertiary structure has not been crystallographically resolved. Indeed, binding partners of AR through this WxxLF motif have not been determined. […] Based on this model, the inventors designed three peptidomimetics T6, T21 and T26 to mimic the ^435WxxLF^439 motif on AR and to target PPIs through this domain (FIG. 1A). The screening strategy involved the use of synthetic Gal4-3WxxLF (Gal4 reporter driven by 3 copies of the WxxLF motif) (FIG. 1B) and AR-Gal4 constructs (wt AR with its DNA binding domain replaced by Gal4 DNA binding domain) (from Dr. Dehm, U. Minnesota) (FIG. 1C) […]. T21, T26, or T6 (but not the control T6R) knocked down the basal ligand independent transcription from this WxxLF driven promoters. Further, these peptidomimetics abrogated ligand independent proliferation of C4-2 cells (FIG. 1D).

wtAR = target: T2, wtAR (Homo sapiens, UniProt P10275); experiment: Rat probasin-luciferase reporter in M12 cells with ARwt; conditions: 100 nM peptidomimetic, 48 h
T2 construct: expressed in transfected cells; host or cells: PC-3 cells (A3); M12 cells (A8)
T2 sequence (P10275 1-920): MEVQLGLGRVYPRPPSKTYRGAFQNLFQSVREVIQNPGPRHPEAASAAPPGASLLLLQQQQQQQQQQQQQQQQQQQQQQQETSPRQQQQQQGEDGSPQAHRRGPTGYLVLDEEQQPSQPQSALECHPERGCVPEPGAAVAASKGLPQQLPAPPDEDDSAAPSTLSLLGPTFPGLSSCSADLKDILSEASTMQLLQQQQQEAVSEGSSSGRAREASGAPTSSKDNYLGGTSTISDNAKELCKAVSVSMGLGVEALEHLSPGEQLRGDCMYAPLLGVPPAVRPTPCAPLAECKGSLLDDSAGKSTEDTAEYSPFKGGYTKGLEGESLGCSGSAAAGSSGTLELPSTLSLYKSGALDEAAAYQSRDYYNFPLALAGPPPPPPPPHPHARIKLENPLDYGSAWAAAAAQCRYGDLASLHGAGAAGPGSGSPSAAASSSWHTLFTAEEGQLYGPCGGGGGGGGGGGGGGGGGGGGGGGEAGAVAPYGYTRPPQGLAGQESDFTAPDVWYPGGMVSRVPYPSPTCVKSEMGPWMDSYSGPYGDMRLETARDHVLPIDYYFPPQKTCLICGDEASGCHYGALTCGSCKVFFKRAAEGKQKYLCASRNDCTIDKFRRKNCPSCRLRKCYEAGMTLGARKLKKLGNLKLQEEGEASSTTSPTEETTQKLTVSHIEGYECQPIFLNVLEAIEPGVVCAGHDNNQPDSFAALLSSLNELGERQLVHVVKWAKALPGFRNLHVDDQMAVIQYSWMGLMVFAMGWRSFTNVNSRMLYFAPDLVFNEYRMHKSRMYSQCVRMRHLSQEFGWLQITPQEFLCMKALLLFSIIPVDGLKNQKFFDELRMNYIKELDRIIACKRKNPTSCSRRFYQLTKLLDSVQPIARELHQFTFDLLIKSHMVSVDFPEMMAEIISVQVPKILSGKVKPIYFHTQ
Protocol: as §1

expression of rat probasin reporter in M12 cells driven by ARv7 (ARv7): able to independently knock down | basal ligand independent transcription from WxxLF driven promoters (WxxLF motif on AR): knocked down | expression of rat probasin reporter in M12 cells driven by wtAR (wtAR): able to independently knock down
Structure (SMILES): CC(C)COc1cc(C(N)=O)ccc1NC(=O)c1ccc(NC(=O)c2ccc([N+](=O)[O-])c(OCCc3ccc4ccccc4c3)c2)c(OCC(C)C)c1 [T6]
basal transcription from minimal ARE luciferase in CWR22v1 cells (driven by ARv7) ([1]; 100 nM peptidomimetic, 48 h, without androgen (EtOH)): able to suppress; also recorded: abrogated | DHT-induced transcription from minimal ARE luciferase in CWR22v1 cells ([1]; DHT): able to suppress
